Measured values reported in patent publication US20140323300A1, “HERBICIDAL COMPOUNDS” (SYNGENTA LIMITED, priority 2011, published 2014).

How the values were obtained:
Type in all cases: in vivo
[1] = tested on: Amaranthus retoflexus (AMARE); assay: Pre-emergence glasshouse herbicide test; settings: pre-emergence (sprayed after one day cultivation), 1000 g/h, evaluated after 13 days, five point scale
Experimental: (§1) Seeds of a variety of test species are sown in standard soil in pots (Alopecurus myosuroides (ALOMY), Setaria faberi (SETFA), Echinochloa crus-galli (ECHCG), Solanum nigrum (SOLNI), Amaranthus retoflexus (AMARE), Ipomoea hederacea (IPOHE)). After cultivation for one day (pre-emergence) or after 8 days cultivation (post-emergence) under controlled conditions in a glasshouse (at 24/16° C., day/night; 14 hours light; 65% humidity), the plants are sprayed with an aqueous spray solution derived from the formulation of the technical active ingredient in acetone/water (50:50) solution containing 0.5% Tween 20 (polyoxyethelyene sorbitan monolaurate, CAS RN 9005-64-5). Compounds are applied at 1000 g/h. The test plants are then grown in a glasshouse under controlled conditions in a glasshouse (at 24/16° C., day/night; 14 hours light; 65% humidity) and watered twice daily. After 13 days for pre and post-emergence, the test is evaluated for the percentage damage caused to the plant. The biological activities are shown in the following table on a five point scale (5=80-100%; 4=60-79%; 3=40-59%; 2=20-39%; 1=0-19%).

[2] = tested on: Alopecurus myosuroides (ALOMY); assay: Pre-emergence glasshouse herbicide test; settings: pre-emergence (sprayed after one day cultivation), 1000 g/h, evaluated after 13 days, five point scale
Experimental: as §1

Setaria faberi (SETFA) [3] = assay: Pre-emergence glasshouse herbicide test; settings: pre-emergence (sprayed after one day cultivation), 1000 g/h, evaluated after 13 days, five point scale
Experimental: as §1

[4] = tested on: Echinochloa crus-galli (ECHCG); assay: Pre-emergence glasshouse herbicide test; settings: pre-emergence (sprayed after one day cultivation), 1000 g/h, evaluated after 13 days, five point scale
Experimental: as §1

Solanum nigrum (SOLNI) [5] = assay: Pre-emergence glasshouse herbicide test; settings: pre-emergence (sprayed after one day cultivation), 1000 g/h, evaluated after 13 days, five point scale
Experimental: as §1

[6] = tested on: Ipomoea hederacea (IPOHE); assay: Pre-emergence glasshouse herbicide test; settings: pre-emergence (sprayed after one day cultivation), 1000 g/h, evaluated after 13 days, five point scale
Experimental: as §1

[7] = tested on: Amaranthus retoflexus (AMARE); assay: Post-emergence glasshouse herbicide test; settings: post-emergence (sprayed after 8 days cultivation), 1000 g/h, evaluated after 13 days, five point scale
Experimental: as §1

[8] = tested on: Alopecurus myosuroides (ALOMY); assay: Post-emergence glasshouse herbicide test; settings: post-emergence (sprayed after 8 days cultivation), 1000 g/h, evaluated after 13 days, five point scale
Experimental: as §1

Setaria faberi (SETFA) [9] = assay: Post-emergence glasshouse herbicide test; settings: post-emergence (sprayed after 8 days cultivation), 1000 g/h, evaluated after 13 days, five point scale
Experimental: as §1

[10] = tested on: Echinochloa crus-galli (ECHCG); assay: Post-emergence glasshouse herbicide test; settings: post-emergence (sprayed after 8 days cultivation), 1000 g/h, evaluated after 13 days, five point scale
Experimental: as §1

Solanum nigrum (SOLNI) [11] = assay: Post-emergence glasshouse herbicide test; settings: post-emergence (sprayed after 8 days cultivation), 1000 g/h, evaluated after 13 days, five point scale
Experimental: as §1

[12] = tested on: Ipomoea hederacea (IPOHE); assay: Post-emergence glasshouse herbicide test; settings: post-emergence (sprayed after 8 days cultivation), 1000 g/h, evaluated after 13 days, five point scale
Experimental: as §1

| Compound | percentage damage caused to the plant, PRE Application AMARE [1] | percentage damage caused to the plant, PRE Application ALOMY [2] | percentage damage caused to the plant, PRE Application SETFA (Setaria faberi (SETFA) [3]) | percentage damage caused to the plant, PRE Application ECHCG [4] | percentage damage caused to the plant, PRE Application SOLNI (Solanum nigrum (SOLNI) [5]) | percentage damage caused to the plant, PRE Application IPOHE [6] | percentage damage caused to the plant, POST Application AMARE [7] | percentage damage caused to the plant, POST Application ALOMY [8] | percentage damage caused to the plant, POST Application SETFA (Setaria faberi (SETFA) [9]) | percentage damage caused to the plant, POST Application ECHCG [10] | percentage damage caused to the plant, POST Application SOLNI (Solanum nigrum (SOLNI) [11]) | percentage damage caused to the plant, POST Application IPOHE [12] |
| --- | --- | --- | --- | --- | --- | --- | --- | --- | --- | --- | --- | --- |
| O=c1c(O)c(Cl)cnn1-c1ccc(Cl)cc1Cl [Compound 1.001] | 4 (4=60-79%) | 2 (2=20-39%) | 4 (4=60-79%) | 4 (4=60-79%) | 3 (3=40-59%) | 1 (1=0-19%) | 5 (5=80-100%) | 1 (1=0-19%) | 5 (5=80-100%) | 5 (5=80-100%) | 5 (5=80-100%) | 5 (5=80-100%) |
| O=c1c(O)c(Cl)cnn1-c1ccc(C(F)(F)F)cc1Cl [Compound 1.002, 5-chloro-2-[2-chloro-4-(trifluoromethyl)phenyl]-4-hydroxy-pyridazin-3-one] | 5 (5=80-100%) | 2 (2=20-39%) | 4 (4=60-79%) | 5 (5=80-100%) | 5 (5=80-100%) | 4 (4=60-79%) | 5 (5=80-100%) | 1 (1=0-19%) | 5 (5=80-100%) | 5 (5=80-100%) | 5 (5=80-100%) | 5 (5=80-100%) |
| CS(=O)(=O)c1cc(C(F)(F)F)ccc1-n1ncc(Cl)c(O)c1=O [Compound 1.003] | 5 (5=80-100%) | 5 (5=80-100%) | 5 (5=80-100%) | 5 (5=80-100%) | 5 (5=80-100%) | 5 (5=80-100%) | 5 (5=80-100%) | 5 (5=80-100%) | 5 (5=80-100%) | 5 (5=80-100%) | 5 (5=80-100%) | 5 (5=80-100%) |
| Cc1c(-n2ncc(Cl)c(O)c2=O)ccc(S(C)(=O)=O)c1C1=NOCC1 [Compound 1.004] | 5 (5=80-100%) | 5 (5=80-100%) | 5 (5=80-100%) | 5 (5=80-100%) | 5 (5=80-100%) | 5 (5=80-100%) | 5 (5=80-100%) | 5 (5=80-100%) | 5 (5=80-100%) | 5 (5=80-100%) | 5 (5=80-100%) | 5 (5=80-100%) |
| CCc1cnn(-c2ccc(S(C)(=O)=O)c(C3=NOCC3)c2C)c(=O)c1O [Compound 1.005] | 5 (5=80-100%) | 4 (4=60-79%) | 2 (2=20-39%) | 4 (4=60-79%) | 5 (5=80-100%) | 4 (4=60-79%) | 5 (5=80-100%) | 5 (5=80-100%) | 5 (5=80-100%) | 5 (5=80-100%) | 5 (5=80-100%) | 5 (5=80-100%) |
| C=Cc1cnn(-c2ccc(S(C)(=O)=O)c(C3=NOCC3)c2C)c(=O)c1O [Compound 1.006] | 5 (5=80-100%) | 1 (1=0-19%) | 4 (4=60-79%) | 5 (5=80-100%) | 5 (5=80-100%) | 4 (4=60-79%) | 5 (5=80-100%) | 4 (4=60-79%) | 5 (5=80-100%) | 5 (5=80-100%) | 5 (5=80-100%) | 5 (5=80-100%) |
| C=C(C)c1cnn(-c2ccc(S(C)(=O)=O)c(C3=NOCC3)c2C)c(=O)c1O [Compound 1.007] | 5 (5=80-100%) | 3 (3=40-59%) | 3 (3=40-59%) | 5 (5=80-100%) | 4 (4=60-79%) | 5 (5=80-100%) | 5 (5=80-100%) | 5 (5=80-100%) | 5 (5=80-100%) | 5 (5=80-100%) | 5 (5=80-100%) | 5 (5=80-100%) |
| Cc1c(-n2nccc(O)c2=O)ccc(S(C)(=O)=O)c1C1=NOCC1 [Compound 1.008] | 5 (5=80-100%) | 2 (2=20-39%) | 5 (5=80-100%) | 5 (5=80-100%) | 5 (5=80-100%) | 5 (5=80-100%) | 5 (5=80-100%) | 5 (5=80-100%) | 5 (5=80-100%) | 5 (5=80-100%) | 5 (5=80-100%) | 5 (5=80-100%) |
| Cc1c(-n2ncc(C#N)c(O)c2=O)ccc(S(C)(=O)=O)c1C1=NOCC1 [Compound 1.009] | 5 (5=80-100%) | 1 (1=0-19%) | 4 (4=60-79%) | 5 (5=80-100%) | 4 (4=60-79%) | 4 (4=60-79%) | 5 (5=80-100%) | 1 (1=0-19%) | 5 (5=80-100%) | 5 (5=80-100%) | 5 (5=80-100%) | 5 (5=80-100%) |
| Cc1c(-n2ncc(C(C)C)c(O)c2=O)ccc(S(C)(=O)=O)c1C1=NOCC1 [Compound 1.010] | 5 (5=80-100%) | 3 (3=40-59%) | 2 (2=20-39%) | 3 (3=40-59%) | 1 (1=0-19%) | 1 (1=0-19%) | 5 (5=80-100%) | 5 (5=80-100%) | 5 (5=80-100%) | 5 (5=80-100%) | 5 (5=80-100%) | 5 (5=80-100%) |
